# Results reported in patent US20240238299A1, “USE OF PYRROLOPYRIMIDINE COMPOUND” (GUANGZHOU JOYO PHARMATECH CO., LTD, priority 2021, published 2024).
# Assays:
# BV-2 cells = experiment: CTG cell proliferation assay, LPS/IFN-γ-activated BV-2 cells; assay type: cell-based, Mouse
# Protocol: Step 1: BV-2 cells in the exponential growth phase were collected, and viable cells were counted using a Vi-Cell XR cell counter. The cell suspension was adjusted to an appropriate concentration with the culture medium. 160 μL of cell suspension was added to each well of a 96-well cell culture plate, resulting in a final cell concentration of 12,000 cells per well. The culture plate was incubated for 24 hours in a 37° C., 5% CO2 incubator.
# Step 2: A 10 mM DMSO compound stock solution was diluted at a ratio of 1:4 using DMSO to prepare a series of 1000× test compound solutions. These 1000× test compound solutions were further diluted at a ratio of 1:100 using cell culture medium to prepare a series of 10× test compound solutions. Finally, the 96-well plate that had been plated with cells the day before was taken out. According to the experimental well plate loading design, 20 μL of the corresponding 10× solution was added to each well, with three duplicate wells for each drug concentration. The final concentrations of the test compounds used in the experiment (i.e., 1× solutions) have a range of 10, 2.5, 0.625, 0.156, 0.0391, 0.0098, and 0.0024 μM. The final DMSO concentration in each well was 0.1%.
# After the compound was added, the 96-well plate was incubated for half an hour in the 37° C., 5% CO2 incubator.
# After the pre-incubation was completed, 20 μL of culture medium containing 100 ng/mL LPS and 100 ng/mL IFN-γ (final concentrations of 10 ng/mL LPS and 10 ng/mL IFN-7) was added to each well to induce the activation of BV-2 cells. The culture plate was then incubated for 24 hours in the 37° C., 5% CO2 incubator.
# Step 3: After 24 hours of treatment with the compound, the culture plate was centrifuged at 1200 rpm for 5 minutes. The supernatant was pipetted into another plate, which was sealed with tinfoil and stored at −20° C. for future ELISA and Griess reagent system assays. The cell culture plate from which the supernatant had been removed was immediately used for cell proliferation assays using the CellTiter-Glo (CTG) method.
# Step 4: In the cell culture plate from which the supernatant had been removed, 100 μL of PBS was added to each well. According to the instructions of the CellTiter-Glo (CTG) kit, 50 μL of pre-melted and room-temperature balanced CTG solution was added to each well. The plate was then mixed for 2 minutes using a microplate shaker. After letting it stand at room temperature for 10 minutes, the fluorescence signal value was measured using an Envision 2104 plate reader.
# Step 1: Using the CTG fluorescence signal values, the percentage of surviving cells (surviving cells %) at each test concentration relative to the blank (DMSO) group was calculated. The formula was: surviving cells %=fluorescence value of the test concentration group/fluorescence value of the blank group.
# Step 2: the percentage of surviving cells was plotted against the logarithm of the compound concentration. Nonlinear regression was used to fit the curve, and the formula “log(inhibitor) vs. response—Variable slope” in the software GraphPad Prism 5 was employed to calculate the IC50 value.
# Step 3: The formula for calculating the inhibition rate was: inh. (%)={fluorescence value of the blank group−fluorescence value of the test concentration group}/fluorescence value of the blank (DMSO) group.
# rat primary astrocytes = experiment: Cell viability (CCK-8) in NMO-IgG induced astrocyte injury model; assay type: cell-based
# [1] = Rattus norvegicus, Astrocyte, 24 h, read-out: Cell viability percentage, Mean
smiles,measurement,setting,value
CN(c1ncnc2[nH]ccc12)[C@@H]1CCc2cc(C#N)nn2C1 [Compound I],inhibitory effect on cell proliferation,"BV-2 cells; 24 h co-incubation with BV-2, highest test concentration 10 μM",no inhibitory effect on cell proliferation
same,maximum rate of increase in cell numbers compared to blank (DMSO) well,"BV-2 cells; BV-2, 24 h, concentration greater than 0.1 μM",46.39%
same,inhibition at up to 10 µM,"BV-2 cells; Mus musculus, BV-2, 24 h co-incubation, LPS/IFN-γ, highest concentration 10 μM, read-out: Maximum inhibition rate on BV-2 cell proliferation",-46.4%
same,inhibitory effect on cell viability,"rat primary astrocytes; 24 h co-incubation, highest test concentration 20 μM",no inhibitory effect on cell viability
same,viability at 0.027 µM,rat primary astrocytes; [1],112%
same,viability at 0.247 µM,rat primary astrocytes; [1],105%
same,viability at 2.222 µM,rat primary astrocytes; [1],99.7%
same,viability at 20 µM,rat primary astrocytes; [1],99.4%
